The test system of one series is PSMA. As to the kind of experiment: in vivo 68Ga-PSMA-11 blocking, PET imaging and biodistribution. To be noted: 22Rv1 xenograft mice; organs gamma counted.
The nature of the next series: solubility. To be noted: water / buffer. The series is classed as physicochemical.

As for `N[C@@H](Cc1ccc(B(O)O)cc1)C(=O)O` [BPA, 4-borono-L-phenylalanine], the “68Ga-PSMA-11 biodistribution, uptake in kidney, spleen and tumor” value in the series on PSMA is given as “did not significantly block uptake”. The solubility result in the series “solubility” was “low solubility in buffer”.

(Values after article PMC6722010 (Molecular pharmaceutics, 2019).)
